# Measurements as given in ChEMBL document CHEMBL1201862, “PubChem BioAssay data set” (2004).
# Activity calls are given as the source filed them.
# How the values were obtained:
# [1] = viability of uninfected HEp-2 cells – cell-based, HTS, cytotoxicity control for RSV inhibitor project, dose response (AID 2410); type: functional; conditions: human respiratory syncytial virus
# [2] = Luminescence Cell-Based Dose Confirmation HTS to Identify Inhibitors of Platelet Dense Granule Release. [Related pubchem assays: 1663 (Primary HTS), 1678 (Summary of Project)]; type: functional
# [3] = molecular target: T1, Corticotropin-releasing factor receptor 2/Corticotropin-releasing factor-binding protein (Homo sapiens, UniProt P24387+Q13324); assay: activators of CRF receptor 2 with binding protein – uHTS hits, confirmation (AID 602473); type: functional; conditions: read-out: EC50_Mean
# T1 sequence (Q13324 whole entry): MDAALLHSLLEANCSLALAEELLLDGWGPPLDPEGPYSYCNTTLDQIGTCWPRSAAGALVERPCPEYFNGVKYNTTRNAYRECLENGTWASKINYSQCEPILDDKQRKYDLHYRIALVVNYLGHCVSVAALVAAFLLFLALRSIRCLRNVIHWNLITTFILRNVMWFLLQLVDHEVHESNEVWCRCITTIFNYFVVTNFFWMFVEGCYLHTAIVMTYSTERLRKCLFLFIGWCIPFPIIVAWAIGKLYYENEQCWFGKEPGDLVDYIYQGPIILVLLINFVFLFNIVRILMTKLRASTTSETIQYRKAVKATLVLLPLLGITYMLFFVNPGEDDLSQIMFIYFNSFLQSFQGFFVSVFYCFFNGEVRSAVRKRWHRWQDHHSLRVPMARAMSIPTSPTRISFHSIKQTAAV
# T1 sequence (P24387 whole entry): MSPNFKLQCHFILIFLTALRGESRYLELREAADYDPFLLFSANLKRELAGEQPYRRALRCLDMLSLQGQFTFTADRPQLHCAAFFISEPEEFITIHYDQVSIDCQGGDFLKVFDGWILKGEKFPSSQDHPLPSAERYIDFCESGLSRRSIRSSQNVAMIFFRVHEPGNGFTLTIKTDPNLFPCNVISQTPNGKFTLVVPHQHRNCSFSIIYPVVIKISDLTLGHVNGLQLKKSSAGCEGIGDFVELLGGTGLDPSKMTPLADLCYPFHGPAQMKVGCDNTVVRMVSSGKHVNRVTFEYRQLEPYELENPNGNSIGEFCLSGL
# [4] = molecular target: Luciferin 4-monooxygenase (Photinus pyralis, UniProt P08659); assay: inhibition of purified Photinus pyralis luciferase – biochemical, luminescence, dose response (AID 1891)
# Luciferin 4-monooxygenase, sequence (P08659 whole entry): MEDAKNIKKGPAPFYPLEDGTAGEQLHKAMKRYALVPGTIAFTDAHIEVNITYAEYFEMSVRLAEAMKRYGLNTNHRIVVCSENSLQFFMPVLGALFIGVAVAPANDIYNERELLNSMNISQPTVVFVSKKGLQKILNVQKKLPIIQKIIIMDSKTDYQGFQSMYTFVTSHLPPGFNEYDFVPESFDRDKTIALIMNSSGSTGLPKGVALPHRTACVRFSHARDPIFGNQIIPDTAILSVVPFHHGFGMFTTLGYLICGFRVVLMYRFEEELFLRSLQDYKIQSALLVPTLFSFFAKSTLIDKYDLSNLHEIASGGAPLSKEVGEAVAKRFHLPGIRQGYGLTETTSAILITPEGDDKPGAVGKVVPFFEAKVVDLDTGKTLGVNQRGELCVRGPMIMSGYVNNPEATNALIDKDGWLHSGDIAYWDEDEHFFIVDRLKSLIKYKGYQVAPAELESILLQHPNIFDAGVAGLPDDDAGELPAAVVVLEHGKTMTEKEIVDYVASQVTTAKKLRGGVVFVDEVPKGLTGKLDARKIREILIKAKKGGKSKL
# [5] = microbe, parasite or virus in culture; type: functional; conditions: Mycobacterium tuberculosis
# [6] = molecular target: T2, Rac GTPase-activating protein 1 (Homo sapiens, UniProt Q9H0H5); assay: blockers of MgcRacGAP-driven Rac1 GTP hydrolysis – biochemical, ADP Hunter fluorescence, primary and confirmatory, confirmation (AID 624330); type: functional
# T2 sequence (Q9H0H5 whole entry): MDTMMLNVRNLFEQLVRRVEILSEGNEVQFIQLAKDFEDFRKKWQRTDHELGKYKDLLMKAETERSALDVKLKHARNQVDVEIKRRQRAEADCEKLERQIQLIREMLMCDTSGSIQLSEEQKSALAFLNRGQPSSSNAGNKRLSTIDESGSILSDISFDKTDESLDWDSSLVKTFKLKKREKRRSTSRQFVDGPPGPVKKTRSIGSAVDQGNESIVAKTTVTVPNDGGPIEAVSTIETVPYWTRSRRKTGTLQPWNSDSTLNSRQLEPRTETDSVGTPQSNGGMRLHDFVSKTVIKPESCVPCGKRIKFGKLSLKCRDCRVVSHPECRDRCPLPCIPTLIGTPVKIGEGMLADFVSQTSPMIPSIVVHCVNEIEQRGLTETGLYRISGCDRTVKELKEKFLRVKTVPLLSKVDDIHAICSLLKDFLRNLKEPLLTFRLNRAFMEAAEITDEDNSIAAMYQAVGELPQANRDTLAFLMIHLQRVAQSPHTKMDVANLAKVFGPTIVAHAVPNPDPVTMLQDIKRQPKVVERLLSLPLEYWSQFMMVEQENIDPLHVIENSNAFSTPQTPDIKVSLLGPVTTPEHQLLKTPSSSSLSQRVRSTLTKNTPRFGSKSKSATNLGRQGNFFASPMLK
# INS1 = assay: INS-1E survival protection against cytokine death – cell-based, luminescence, retest, dose response (AID 449756); type: functional; conditions: Rattus norvegicus;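 also: cell death triggered by IL-1 beta plus TNF-alpha plus IFN-gamma mixture; protective hits raise ATP signal compared with cytokine alone wells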
# [7] = fluconazole-exposed Candida albicans growth modulators – fluorescence, retest, confirmation (AID 2467); type: functional, cell-based
# [8] = NIH-3T3 fibroblast cytotoxicity, dose response, cytotoxicity control, cell-based, fluorescence, Alamar Blue, secondary assay (AID 2327); type: functional;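 also: NIH-3T3 mouse fibroblasts cultured with fluconazole at 8 µg/mL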
# [9] = molecular target: T3, Replicative DNA helicase DnaB (Mycobacterium tuberculosis, UniProt P9WMR3); assay: DnaB intein splicing inhibitors, dose response, biochemical, cell-free fluorescence (AID 449749); type: functional
# T3 sequence (P9WMR3 whole entry): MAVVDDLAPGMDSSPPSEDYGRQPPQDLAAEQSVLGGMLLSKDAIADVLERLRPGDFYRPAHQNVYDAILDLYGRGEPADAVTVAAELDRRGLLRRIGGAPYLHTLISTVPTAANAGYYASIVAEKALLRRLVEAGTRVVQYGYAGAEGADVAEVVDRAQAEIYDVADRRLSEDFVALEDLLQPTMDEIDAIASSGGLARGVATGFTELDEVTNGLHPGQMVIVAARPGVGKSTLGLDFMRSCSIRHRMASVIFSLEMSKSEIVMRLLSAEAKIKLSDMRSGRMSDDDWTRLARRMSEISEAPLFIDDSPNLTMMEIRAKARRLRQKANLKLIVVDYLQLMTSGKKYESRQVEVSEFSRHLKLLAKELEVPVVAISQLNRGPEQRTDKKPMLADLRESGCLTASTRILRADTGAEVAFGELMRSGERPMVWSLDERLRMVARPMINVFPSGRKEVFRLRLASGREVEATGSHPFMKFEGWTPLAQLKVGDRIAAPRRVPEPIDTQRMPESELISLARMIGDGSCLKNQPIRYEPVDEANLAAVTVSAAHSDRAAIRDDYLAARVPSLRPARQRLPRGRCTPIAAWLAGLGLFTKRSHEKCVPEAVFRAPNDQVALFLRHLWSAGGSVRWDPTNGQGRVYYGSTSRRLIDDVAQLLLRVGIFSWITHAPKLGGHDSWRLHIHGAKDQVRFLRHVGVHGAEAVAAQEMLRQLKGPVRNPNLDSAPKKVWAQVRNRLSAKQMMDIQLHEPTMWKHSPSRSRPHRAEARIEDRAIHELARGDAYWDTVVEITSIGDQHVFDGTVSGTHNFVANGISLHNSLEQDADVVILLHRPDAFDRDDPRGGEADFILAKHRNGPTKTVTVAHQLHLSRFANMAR
# Protein RecA = molecular target: T4, Protein RecA (Mycobacterium tuberculosis, UniProt P9WHJ3); assay: Fluorescence Cell-Free Homogeneous Dose Retest to Identify Inhibitors of RecA-Intein Splicing Activity. [Related pubchem assays (depositor defined):AID2097, AID2223, AID489010, AID492950]; type: functional
# T4 sequence (P9WHJ3 whole entry): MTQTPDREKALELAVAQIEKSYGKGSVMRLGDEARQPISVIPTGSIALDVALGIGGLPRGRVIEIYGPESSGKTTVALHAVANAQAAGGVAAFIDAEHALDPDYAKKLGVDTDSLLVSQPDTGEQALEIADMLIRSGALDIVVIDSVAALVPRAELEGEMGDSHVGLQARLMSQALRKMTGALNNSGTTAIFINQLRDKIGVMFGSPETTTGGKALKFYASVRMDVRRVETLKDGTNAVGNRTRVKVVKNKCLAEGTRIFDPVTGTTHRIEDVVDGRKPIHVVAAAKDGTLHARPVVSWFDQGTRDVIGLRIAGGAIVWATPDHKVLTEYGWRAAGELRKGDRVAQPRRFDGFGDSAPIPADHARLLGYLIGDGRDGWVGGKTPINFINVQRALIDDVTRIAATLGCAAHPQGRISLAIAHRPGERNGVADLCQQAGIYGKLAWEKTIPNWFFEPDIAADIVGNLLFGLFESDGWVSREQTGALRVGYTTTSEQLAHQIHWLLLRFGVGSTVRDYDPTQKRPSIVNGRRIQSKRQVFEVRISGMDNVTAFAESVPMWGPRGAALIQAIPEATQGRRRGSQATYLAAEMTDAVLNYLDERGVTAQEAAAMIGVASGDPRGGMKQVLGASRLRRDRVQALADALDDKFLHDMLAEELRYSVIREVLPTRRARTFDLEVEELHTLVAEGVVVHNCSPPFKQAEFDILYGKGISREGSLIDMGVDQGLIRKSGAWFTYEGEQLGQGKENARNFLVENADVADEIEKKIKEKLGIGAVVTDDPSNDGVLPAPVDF
smiles,measurement,setting,value
COc1ccc(-c2oc3cccnc3c2C#CCO)cc1,CC50,[1],> 50 µM (active)
Cc1ccccc1C(=O)NC(=S)Nc1sc2c(c1C#N)CCC(C)C2 (stereo not drawn),CC50,[1],36.8 µM (active)
COC(=O)c1ccc(CSc2nc3ccccc3[nH]2)o1,CC50,[1],> 50 µM (active)
Cc1[nH]c2ccccc2c1N=Nc1ccccc1F,CC50,[1],18 µM (active)
CC1=[N+]([O-])C(C)(C)N(O)C1(C)C,EC50,[2],> 112 µM (not active)
same,EC50,[3],> 53 µM (inactive)
same,EC50,[4],> 112 µM (not active)
CC1(C)CC(=O)C2=C(C1)N=C(Nc1nc3ccccc3o1)NC2c1ccccn1 (stereo not drawn),CC50,[5],> 40 µM (active)
O=C(Oc1ccccc1-c1nnco1)c1ccc(Cl)cc1,CC50,[5],21.8 µM (active)
O=C1C=C(c2ccccc2)C(c2ccccc2)C1O (stereo not drawn),EC50,[3],> 53 µM (inactive)
CCN(CC)c1ccc(/N=C/c2ccccc2[N+](=O)[O-])cc1,IC50,[6],30.5 µM (active)
same,AC50,INS1,33.2 µM (active)
CCOc1ccc(NC(=O)CCC(=O)N/N=C/c2ccc3c(c2)OCO3)cc1,EC50,[7],> 38 µM (not active)
same,EC50,[8],> 150 µM (inactive)
Oc1c(/C=N/Cc2ccc(F)cc2)[nH]c2ccc(Br)c(Cl)c12,AC50,[9],61.8 µM (active)
same,EC50,Protein RecA,2.44 µM (active)
same,CC50,[1],29.1 µM (active)
CN(C)c1nc(NCc2ccccc2)nc(N/N=C/c2ccc3c(c2)OCO3)n1,CC50,[5],> 40 µM (active)
